# In ChEMBL document CHEMBL1649121, “Giardia, Entamoeba, and Trichomonas enzymes activate metronidazole (nitroreductases) and inactivate metronidazole (nitroimidazole reductases)” (Antimicrob Agents Chemother, 2009):
# Key:
# [1] = test system: Entamoeba histolytica; assay: Activity of Entamoeba histolytica NTR1 at 50 uM
# [2] = test system: Entamoeba histolytica; assay: Activity of Entamoeba histolytica NTR2 at 50 uM
# [3] = test system: Entamoeba histolytica; assay: Activity of Entamoeba histolytica NTR3 at 50 uM
# [4] = test system: Giardia duodenalis; assay: Activity of Giardia lamblia NTR at 50 uM
# [5] = test system: Trichomonas vaginalis; assay: Activity of Trichomonas vaginalis NTR8 at 50 uM
# [6] = test system: Escherichia coli; assay: Antimicrobial activity against Escherichia coli JM109 transformed with empty vector PQE30 after 16 hrs; assay type: functional, organism-based; settings: JM109, JM 109, 16 h
# [7] = test system: Escherichia coli; assay: Antimicrobial activity against Escherichia coli JM109 transformed with Entamoeba histolytica NTR1 after 16 hrs; assay type: functional, organism-based; settings: JM109, JM 109, 16 h
# [8] = test system: Escherichia coli; assay: Antimicrobial activity against Escherichia coli JM109 transformed with Entamoeba histolytica NTR2 after 16 hrs; assay type: functional, organism-based; settings: JM109, JM 109, 16 h
# [9] = test system: Escherichia coli; assay: Ratio of EC50 for Escherichia coli JM109 transformed with empty vector PQE30 to EC50 for Escherichia coli JM109 transformed with Entamoeba histolytica NTR1; assay type: functional
# [10] = test system: Escherichia coli; assay: Ratio of EC50 for Escherichia coli JM109 transformed with empty vector PQE30 to EC50 for Escherichia coli JM109 transformed with Entamoeba histolytica NTR2; assay type: functional
# [11] = test system: Escherichia coli; assay: Antimicrobial activity against Escherichia coli JM109 transformed with Entamoeba histolytica nim1 after 16 hrs; assay type: functional, organism-based; settings: JM109, JM 109, 16 h
# [12] = test system: Escherichia coli; assay: Antimicrobial activity against Escherichia coli JM109 transformed with Trichomonas vaginalis nim1 after 16 hrs; assay type: functional, organism-based; settings: JM109, JM 109, 16 h
# [13] = test system: Escherichia coli; assay: Ratio of EC50 for Escherichia coli JM109 transformed with empty vector PQE30 to EC50 for Escherichia coli JM109 transformed with Entamoeba histolytica nim1; assay type: functional
# [14] = test system: Escherichia coli; assay: Ratio of EC50 for Escherichia coli JM109 transformed with empty vector PQE30 to EC50 for Escherichia coli JM109 transformed with Trichomonas vaginalis nim1; assay type: functional
# [15] = test system: Entamoeba histolytica; assay: Activity of Entamoeba histolytica NIM1
structure (smiles),measurement,setting,value
Cc1ncc([N+](=O)[O-])n1CCO [METRONIDAZOLE],Km,[1],0.067 µM
same,Vmax,[1],0.027 µmol/min
same,Km,[2],0.081 µM
same,Vmax,[2],0.031 µmol/min
same,Km,[3],0.083 µM
same,Vmax,[3],0.014 µmol/min
same,Km,[4],0.206 µM
same,Vmax,[4],0.347 µmol/min
same,Km,[5],0.078 µM
same,Vmax,[5],0.329 µmol/min
same,EC50,[6],25 µg/mL
same,EC50,[7],7 µg/mL
same,EC50,[8],8 µg/mL
same,Ratio EC50,[9],3
same,Ratio EC50,[10],3
same,EC50,[11],750 µg/mL
same,EC50,[12],500 µg/mL
same,Ratio EC50,[13],30
same,Ratio EC50,[14],20
same,Vmax,[15],0.057 µmol/min
